Literature values as cited in patent US20090196894A1, “Self Tanning Composition” (priority 2006, published 2009).

Details: over the entire pH range, among the investigated hydroxyflavones

In the case of `O=c1c(O)c(-c2ccc(O)c(O)c2)oc2cc(O)cc(O)c12` [quercetin, 3,3′,4′,5,7-pentahydrooxyflavone], the antioxidative effect is listed as “highest activity”.
